Values of other authors in US20260334526A1 (NICOVENTURES TRADING LIMITED, priority 2022, published 2026).

Columns and labels:
[1] = for solubility: fats, alcohols, water
[2] = nicotine solution at pH=6 relative to pH 8.1; perfusion cell; Adrian et al.

| Compound | solubility [1] | chemical stability ([1]; when isolated) | reduction of diffusion rate across human buccal tissue (factor) [2] |
| --- | --- | --- | --- |
| CC(/C=C/C=C(C)/C=C/C(=O)O)=C\C=C\C=C(C)\C=C\C=C(C)\C=C\C(=O)O (stereo in doubt) [norbixin, (2E,4E,6E,8E,10E,12E,14E,16E,18E)-4,8,13,17-tetramethylicosa-2,4,6,8,10,12,14,16,18-nonaenedioic acid] | water-soluble |  |  |
| COC(=O)/C=C/C(C)=C\C=C\C(C)=C\C=C\C=C(C)\C=C\C=C(C)\C=C\C(=O)O [bixin, (2E,4E,6E,8E,10E,12E,14E,16Z,18E)-20-methoxy-4,8,13,17-tetramethyl-20-oxoicosa-2,4,6,8,10,12,14,16,18-nonaenoic acid] | soluble in fats and alcohols but insoluble in water | chemically unstable when isolated |  |
| CN1CCCC1c1cccnc1 (stereo not shown) [nicotine] |  |  | ~ 7 |
